Reference: patent publication US20100041089A1, “IMPROVED METHOD FOR DETECTING CHEMICAL […]” (priority 2006, published 2010)

Tested on: yeast genes (expressed mRNA)
Experiment: DNA chip measurement of expressed mRNA of yeast genes after culture with a toxic chemical substance
Assay type: cell-based, Saccharomyces cerevisiae S288C
Settings: for level of expressed mRNA in the presence of chemical substance / level in the absence of chemical substance: cultured two hours with the chemical substance; for The level of expressed mRNA in the presence of chemical substance/The level of expressed mRNA in the absence of chemical substance: cultured two hours with substance
Outline: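 Two-hour exposure of growing S. cerevisiae S288C (YPD, 25° C) to a sublethal toxicant preceded RNA isolation. Fluorescent cDNA was hybridized to a whole-genome array; a treated-to-untreated signal ratio of two or more was taken as significant.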

Na2As [(1)]
level of expressed mRNA in the presence of chemical substance / level in the absence of chemical substance (yeast gene YDR133C): 0.9 | level of expressed mRNA in the presence of chemical substance / level in the absence of chemical substance (yeast gene YDR250C): 1.9 | level of expressed mRNA in the presence of chemical substance / level in the absence of chemical substance (yeast gene YDR278C): 1.0 | level of expressed mRNA in the presence of chemical substance / level in the absence of chemical substance (yeast gene YDR281C): 2.1 | The level of expressed mRNA in the presence of chemical substance/The level of expressed mRNA in the absence of chemical substance (yeast gene YDR330W): 0.8 | level of expressed mRNA in the presence of chemical substance / level in the absence of chemical substance (yeast gene YDR366C): 0.9 | The level of expressed mRNA in the presence of chemical substance/The level of expressed mRNA in the absence of chemical substance (yeast gene YDR411C): 0.9 | The level of expressed mRNA in the presence of chemical substance/The level of expressed mRNA in the absence of chemical substance (yeast gene YDR511W): 1.3 | The level of expressed mRNA in the presence of chemical substance/The level of expressed mRNA in the absence of chemical substance (yeast gene YDR545W): 0.6 | The level of expressed mRNA in the presence of chemical substance/The level of expressed mRNA in the absence of chemical substance (yeast gene YEL001C): 1.0 | The level of expressed mRNA in the presence of chemical substance/The level of expressed mRNA in the absence of chemical substance (yeast gene YER004W): 1.0 | The level of expressed mRNA in the presence of chemical substance/The level of expressed mRNA in the absence of chemical substance (yeast gene YER035W): 1.4 | The level of expressed mRNA in the presence of chemical substance/The level of expressed mRNA in the absence of chemical substance (yeast gene YER079W): 1.1 | The level of expressed mRNA in the presence of chemical substance/The level of expressed mRNA in the absence of chemical substance (yeast gene YER106W): 1.3 | The level of expressed mRNA in the presence of chemical substance/The level of expressed mRNA in the absence of chemical substance (yeast gene YER158C): 1.2 | The level of expressed mRNA in the presence of chemical substance/The level of expressed mRNA in the absence of chemical substance (yeast gene YER163C): 1.1 | The level of expressed mRNA in the presence of chemical substance/The level of expressed mRNA in the absence of chemical substance (yeast gene YER175C): 0.9 | The level of expressed mRNA in the presence of chemical substance/The level of expressed mRNA in the absence of chemical substance (yeast gene YFL006W): 0.8 | The level of expressed mRNA in the presence of chemical substance/The level of expressed mRNA in the absence of chemical substance (yeast gene YFL010C): 1.0 | The level of expressed mRNA in the presence of chemical substance/The level of expressed mRNA in the absence of chemical substance (yeast gene YFL024C): 1.0 | The level of expressed mRNA in the presence of chemical substance/The level of expressed mRNA in the absence of chemical substance (yeast gene YFL032W): 0.4 | level of expressed mRNA in the presence of chemical substance / level in the absence of chemical substance (yeast gene YFR026C): 0.9 | The level of expressed mRNA in the presence of chemical substance/The level of expressed mRNA in the absence of chemical substance (yeast gene YGL037C): 1.5 | The level of expressed mRNA in the presence of chemical substance/The level of expressed mRNA in the absence of chemical substance (yeast gene YGL047W): 1.0 | The level of expressed mRNA in the presence of chemical substance/The level of expressed mRNA in the absence of chemical substance (yeast gene YGL053W): 1.5 | level of expressed mRNA in the presence of chemical substance / level in the absence of chemical substance (yeast gene YGL088W): 0.9 | The level of expressed mRNA in the presence of chemical substance/The level of expressed mRNA in the absence of chemical substance (yeast gene YGL121C): 2.6 | The level of expressed mRNA in the presence of chemical substance/The level of expressed mRNA in the absence of chemical substance (yeast gene YGL199C): 1.1 | level of expressed mRNA in the presence of chemical substance / level in the absence of chemical substance (yeast gene YGR038W): 0.9 | The level of expressed mRNA in the presence of chemical substance/The level of expressed mRNA in the absence of chemical substance (yeast gene YGR101W): 1.0 | The level of expressed mRNA in the presence of chemical substance/The level of expressed mRNA in the absence of chemical substance (yeast gene YGR110W): 1.6 | The level of expressed mRNA in the presence of chemical substance/The level of expressed mRNA in the absence of chemical substance (yeast gene YGR130C): 0.9 | level of expressed mRNA in the presence of chemical substance / level in the absence of chemical substance (yeast gene YGR139W): 1.3 | The level of expressed mRNA in the presence of chemical substance/The level of expressed mRNA in the absence of chemical substance (yeast gene YGR154C): 1.8 | The level of expressed mRNA in the presence of chemical substance/The level of expressed mRNA in the absence of chemical substance (yeast gene YGR221C): 0.9 | level of expressed mRNA in the presence of chemical substance / level in the absence of chemical substance (yeast gene YGR243W): 1.4 | level of expressed mRNA in the presence of chemical substance / level in the absence of chemical substance (yeast gene YGR293C): 0.5 | level of expressed mRNA in the presence of chemical substance / level in the absence of chemical substance (yeast gene YHL006C): 0.7 | level of expressed mRNA in the presence of chemical substance / level in the absence of chemical substance (yeast gene YHR095W): 1.1 | level of expressed mRNA in the presence of chemical substance / level in the absence of chemical substance (yeast gene YHR105W): 0.9 | The level of expressed mRNA in the presence of chemical substance/The level of expressed mRNA in the absence of chemical substance (yeast gene YHR138C): 2.8 | level of expressed mRNA in the presence of chemical substance / level in the absence of chemical substance (yeast gene YHR181W): 0.9 | The level of expressed mRNA in the presence of chemical substance/The level of expressed mRNA in the absence of chemical substance (yeast gene YHR199C): 1.9 | The level of expressed mRNA in the presence of chemical substance/The level of expressed mRNA in the absence of chemical substance (yeast gene YIL023C): 1.1 | The level of expressed mRNA in the presence of chemical substance/The level of expressed mRNA in the absence of chemical substance (yeast gene YIL041W): 1.0 | The level of expressed mRNA in the presence of chemical substance/The level of expressed mRNA in the absence of chemical substance (yeast gene YIL087C): 1.3 | level of expressed mRNA in the presence of chemical substance / level in the absence of chemical substance (yeast gene YIL127C): 1.1 | level of expressed mRNA in the presence of chemical substance / level in the absence of chemical substance (yeast gene YJL017W): 1.1 | level of expressed mRNA in the presence of chemical substance / level in the absence of chemical substance (yeast gene YJL037W): 1.8 | The level of expressed mRNA in the presence of chemical substance/The level of expressed mRNA in the absence of chemical substance (yeast gene YJL057C): 1.5 | The level of expressed mRNA in the presence of chemical substance/The level of expressed mRNA in the absence of chemical substance (yeast gene YJL066C): 0.9 | The level of expressed mRNA in the presence of chemical substance/The level of expressed mRNA in the absence of chemical substance (yeast gene YJL082W): 1.4 | level of expressed mRNA in the presence of chemical substance / level in the absence of chemical substance (yeast gene YJL097W): 1.0
